Publication PMC3536056 (Journal of immunology (Baltimore, Md. : 1950), 2012)
“Also recorded” adds a separate entry of the source.

Experiments:
D^b = conditions: Flu determinants; cited from earlier work
[1] = molecular target: H-2D^b (mouse (endogenous in RMA/s)); assay: flow cytometry on cells
naïve TCR-V T cells = assay: In vivo proliferation of CFSE-labeled naïve TCR-V cells; design: species or system B6 mice; conditions: peptide s.c. 100 μg in IFA, or rVV i.v. 10^7 PFU; 3 days
H-2D^b = molecular target: T1, H-2D^b (Mus musculus, UniProt P01899); assay: Stability; format: binding; conditions: for half-life of peptide/H-2D^b complexes: RMA/s cells loaded overnight at 29 °C, washed, decay at 37 °C, flow cytometry; for pMHC stability (in words): versus wild type site V peptide, RMA/s decay at 37 °C
T1 sequence (P01899 25-362): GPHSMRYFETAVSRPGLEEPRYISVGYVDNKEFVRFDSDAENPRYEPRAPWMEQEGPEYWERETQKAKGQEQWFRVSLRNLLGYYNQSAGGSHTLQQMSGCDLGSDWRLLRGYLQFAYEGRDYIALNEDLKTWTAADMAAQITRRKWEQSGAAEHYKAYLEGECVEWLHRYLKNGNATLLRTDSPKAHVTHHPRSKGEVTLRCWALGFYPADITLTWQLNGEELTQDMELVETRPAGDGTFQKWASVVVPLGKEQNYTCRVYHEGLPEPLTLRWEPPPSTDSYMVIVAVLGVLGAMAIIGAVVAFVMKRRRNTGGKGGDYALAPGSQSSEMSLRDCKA
T1 sequence (P01887 21-119 partner): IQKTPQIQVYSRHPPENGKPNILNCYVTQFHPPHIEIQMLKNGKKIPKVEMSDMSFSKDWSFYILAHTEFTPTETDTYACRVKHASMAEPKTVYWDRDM

TCR-V T cells = format: cell-based, mice; conditions: for functional avidity for TCR-V T cells (in words): 10^−7–10^−12 M peptide, versus wild type site V
[2] = system: polyclonal site V-specific T cells; assay: Intracellular IFN-γ, peptide-stimulated polyclonal site V-specific T cells; format: cell-based, mice; conditions: 10^−7–10^−12 M peptide; versus wild type site V

Row | Substance | half-life of the pMHC complex [1] [hours] | half-life of peptide/H-2D^b complexes (H-2D^b) | pMHC stability (in words) (H-2D^b) | further results
1 | PA224–233: dominant D^b-Flu determinant (SSLENFRAYV; UniProt P03433 224-233, looked up, fragment) | – | – | – | estimated half-life of D^b pMHC (D^b): ~16 hours
2 | site V variant peptide Q489A (…) | 4 | – | – | fold increase of relative affinity against wild type site V [1]: 4 fold
3 | AGINNLDNL [Q489A] | – | approximately 4 hours | formed more stable pMHC than the wild type site V peptide; also recorded: most dramatic increase in pMHC stability | TCR-V division on bypassing cross-presentation (in words) (naïve TCR-V T cells): almost all of the TCR-V cells underwent division; functional avidity for TCR-V T cells (in words) (TCR-V T cells): not increased; functional avidity for polyclonal site V-specific T cells (in words) [2]: not increased
4 | SV40 TAg site V peptide (…) | 2 | – | – | –
5 | site V variant peptide G490A (…) | 2.75 | – | – | –
6 | SAINNYAQKL [site I, reference compound] | – | greater than 4 hours | most stable | –
7 | QAINNLDNL [G490A] | – | ~2.75 h | formed more stable pMHC than the wild type site V peptide; also recorded: moderately increased stability compared to wt site V; also recorded: modest increase in pMHC stability | reduction of functional avidity for TCR-V T cells (TCR-V T cells): five; functional avidity for TCR-V T cells (in words) (TCR-V T cells): not increased; functional avidity for polyclonal site V-specific T cells (in words) [2]: not increased
8 | SV40 TAg site I peptide (…) | > 4 | – | – | –
9 | ASNENMETM [NP366–374] | – | – | – | estimated half-life of D^b pMHC (D^b): ~ 4 hours
